Structures can show the parent of a compound that is named as a salt. Where two headings read alike, the source gives them in different places.
How the values were obtained:
[1] = tested on: PBLs (quiescent cells, peripheral blood lymphocytes); test: FDA-PI viability assay on quiescent PBLs; type: cell-based; settings: Lymphocyte, 48 h incubation, read-out: Viability PBL IC50
Procedure: (§1) The compounds were tested in a viability/proliferation assay for comparing, under similar conditions, their activity on proliferating tumor cells and on quiescent normal cells.
(§2) The HeLa cells (tumor cell line) and the PBLs (quiescent cells, peripheral blood lymphocytes) originate, respectively, from the ATCC and from Cambrex.
(§3) The HeLa cells (tumor cell line) are seeded at 0.25×10^6 cells/well in 2 mL of culture medium. The products are added 24 h after seeding. After incubation for 48 h in the presence of the products, all the HeLa cells (supernatant and adherent cells) are recovered, centrifuged and taken up in PBS containing a final concentration of 0.25 μg/mL of fluorescein diacetate (FDA), 10 μg/mL of propidium iodide (PI) and 3 μL/mL of 10 μm beads. The cell suspensions are filtered immediately before analysis on the Facscalibur. The PBLs are seeded at 10^6 cells/well in 2 mL of culture medium. The products are added 1-4 h after seeding. After incubation for 48 h in the presence of the products, half the cell suspension is recovered and incubated in the presence of a final concentration of 0.25 μg/mL of fluorescein diacetate (FDA), 10 μg/mL of propidium iodide (PI) and 2 μL/mL of 10 μm beads.
(§4) The FDA which enters the cells is cleaved by esterases only in live cells, releasing the fluorescein which emits a fluorescent radiation in the green range when it is excited (generally by UV radiation). The PI enters only the dead cells, the membrane of which is permeabilized, and emits a fluorescent radiation in the red range when it is excited. The beads are used as tracers for the dead cells having already disappeared at the time of reading.
(§5) Calculation: The % of viable cells relative to the nontreated control is given by: (number of live cells/number of live cells in the control)/(number of beads/number of beads in the control)×100 for the HeLa cells, and by: (number of live cells/number of live cells in the control)×100 for the quiescent PBLs. The products according to the invention are tested at several concentrations and an IC50, corresponding to the concentration which causes 50% of the maximum inhibition, is calculated.

[2] = tested on: HeLa cells (tumor cell line); test: FDA-PI viability/proliferation assay on HeLa tumor cells; type: cell-based; settings: for IC50: Homo sapiens; for ratio: PBL viability IC50 / HeLa viability IC50
Procedure: as §1, §2, §3, §4, §5

[3] = HeLa cells, 48 h incubation, read-out: Viability HeLa IC50
[4] = HeLa, read-out: IC50 values on the tumor cells

| SMILES | IC50 [2, 3] [nM] | IC50 [2, 4] [nM] | IC50 [1] [nM] | ratio [2] |
| --- | --- | --- | --- | --- |
| CCN(CC)C(=O)Nc1c[nH]nc1-c1nc2cc(F)c(OCCCN3CCCCC3)cc2[nH]1 [Example 6, 1,1-diethyl-3-{3-[5-fluoro-6-(3-piperidin-1-ylpropoxy)-1H-benzimidazol-2-yl]-1H-pyrazol-4-yl}urea Hydrochloride] | – | < 100 | – | – |
| O=C(Nc1c[nH]nc1-c1nc2cc(F)c(N3CCCOCC3)cc2[nH]1)N1CCCCC1 [Example 38] | 85 | – | 9170 | 108 |
| CCN(CC)C(=O)Nc1c[nH]nc1-c1nc2cc(F)c(NCCN(C)C)cc2[nH]1 [Example 15, 3-{3-[6-(2-dimethylaminoethylamino)-5-fluoro-1H-benzimidazol-2-yl]-1H-pyrazol-4-yl}-1,1-diethylurea Trifluoroacetate] | – | < 100 | – | – |
| CCN(CC)C(=O)Nc1c[nH]nc1-c1nc2ccc(N3CCN(C)CC3)cc2[nH]1 [Example 19, 1,1-diethyl-3-{3-[6-(4-methylpiperazin-1-yl)-1H-benzimidazol-2-yl]-1H-pyrazol-4-yl}urea] | – | < 100 | – | – |
| CN1CCN(c2ccc3nc(-c4n[nH]cc4NC(=O)N4CCCCC4)[nH]c3c2)CC1 [Example 20, N-{3-[6-(4-methylpiperazin-1-yl)-1H-benzimidazol-2-yl]-1H-pyrazol-4-yl}piperidine-1-carboxamide] | – | < 100 | – | – |
| Cl.O=C(Nc1c[nH]nc1-c1nc2cc(F)c(N3CCOCC3)cc2[nH]1)N1CCCCC1 [Example 1, N-[3-(5-fluoro-6-morpholin-4-yl-1H-benzimidazol-2-yl)-1H-pyrazol-4-yl]piperidine-1-carboxamide Hydrochloride] | 107 | – | 7550 | 70 |
| CCN(CC)C(=O)Nc1c[nH]nc1-c1nc2cc(F)c(OCCCN(C)C)cc2[nH]1 [Example 5, 3-{3-[6-(3-dimethylaminopropoxy)-5-fluoro-1H-benzimidazol-2-yl]-1H-pyrazol-4-yl}-1,1-diethylurea Trifluoroacetate] | – | < 100 | – | – |
| CCN(C(=O)Nc1c[nH]nc1-c1nc2cc(F)c(OCCCN(C)C)cc2[nH]1)C(C)C [Example 33, 3-{3-[6-(3-dimethylaminopropoxy)-5-fluoro-1H-benzimidazol-2-yl]-1H-pyrazol-4-yl}-1-ethyl-1-isopropylurea] | – | < 100 | – | – |
| CCN(CC)C(=O)Nc1c[nH]nc1-c1nc2cc(F)c(OCCN3CCCCC3)cc2[nH]1 [Example 4, 1,1-diethyl-3-{3-[5-fluoro-6-(2-piperidin-1-ylethoxy)-1H-benzimidazol-2-yl]-1H-pyrazol-4-yl}urea Trifluoroacetate] | – | < 100 | – | – |
| CN(C)CCCOc1cc2[nH]c(-c3n[nH]cc3NC(=O)N3CCNCC3)nc2cc1F [Example 31, N-{3-[6-(3-Dimethylaminopropoxy)-5-fluoro-1H-benzimidazol-2-yl]-1H-pyrazol-4-yl}piperazine-1-carboxamide] | – | 5000 to 30000 | – | – |
| CCN(CC)C(=O)Nc1c[nH]nc1-c1nc2cc(OCCCCN3CCCCC3)c(F)cc2[nH]1 [Example 9, 1,1-diethyl-3-{3-[6-fluoro-5-(4-piperidin-1-ylbutoxy)-1H-benzimidazol-2-yl]-1H-pyrazol-4-yl}urea Trifluoroacetate] | – | < 100 | – | – |

Further lines, with some results ahead:

| IC50 [2, 3] [nM] | IC50 [2, 4] [nM] | SMILES | IC50 [1] [nM] | ratio [2] |
| --- | --- | --- | --- | --- |
| 56 | – | CN1CCN(c2cc3[nH]c(-c4n[nH]cc4NC(=O)N4CCCCC4)nc3cc2F)CC1.O=C(O)C(F)(F)F [Example 12, N-{3-[5-fluoro-6-(4-methylpiperazin-1-yl)-1H-benzimidazol-2-yl]-1H-pyrazol-4-yl}piperidine-1-carboxamide Trifluoroacetate] | 3490 | 62 |
| – | < 100 | CC(C)N(C(=O)Nc1c[nH]nc1-c1nc2cc(F)c(N3CCCOCC3)cc2[nH]1)C(C)C [Example 8, 3-[3-(5-fluoro-6-perhydro-1,4-oxazepan-4-yl-1H-benzimidazol-2-yl)-1H-pyrazol-4-yl]-1,1-diisopropylurea] | – | – |
| – | < 100 | CC(C)N(C(=O)Nc1c[nH]nc1-c1nc2cc(F)c(N3CCOCC3)cc2[nH]1)C(C)C [Example 16, 3-[3-(5-fluoro-6-morpholin-4-yl-1H-benzimidazol-2-yl)-1H-pyrazol-4-yl]-1,1-diisopropylurea] | – | – |
| – | < 100 | CCN(CC)C(=O)Nc1c[nH]nc1-c1nc2cc(F)c(N3CCCOCC3)cc2[nH]1 [Example 11, 1,1-diethyl-3[3-(5-fluoro-6-perhydro-1,4-oxazepin-4-yl-1H-benzimidazol-2-yl)-1H-pyrazol-4-yl]urea] | – | – |
| 39 | – | CCN(CC)C(=O)Nc1c[nH]nc1-c1nc2cc(F)c(N3CCCN(C)CC3)cc2[nH]1 [Example 18, 1,1-diethyl-3-{3-[5-fluoro-6-(4-methylperhydro-1,4-diazepin-1-yl)-1H-benzimidazol-2-yl]-1H-pyrazol-4-yl}urea] | 3760 | 96 |
| – | < 100 | CCN(CC)C(=O)Nc1c[nH]nc1-c1nc2cc(F)c(N3CCN(C)CC3)cc2[nH]1 [Example 13, 1,1-diethyl-3-{3-[5-fluoro-6-(4-methylpiperazin-1-yl)-1H-benzimidazol-2-yl]-1H-pyrazol-4-yl}urea] | – | – |
| – | < 100 | CCN(C(=O)Nc1c[nH]nc1-c1nc2ccc(N3CCN(C)CC3)cc2[nH]1)C(C)C [Example 37, 1-Ethyl-1-isopropyl-3-{3-[6-(4-methylpiperazin-1-yl)-1H-benzimidazol-2-yl]-1H-pyrazol-4-yl}urea] | – | – |
| – | < 100 | CCN(CC)C(=O)Nc1c[nH]nc1-c1nc2cc(F)c(N3CCOCC3)cc2[nH]1 [Example 2, 1,1-diethyl-3-[3-(5-fluoro-6-morpholin-4-yl-1H-benzimidazol-2-yl)-1H-pyrazol-4-yl]urea Trifluoroacetate] | – | – |
| – | < 100 | CC(C)N(C(=O)Nc1c[nH]nc1-c1nc2cc(F)c(N3CCCN(C)CC3)cc2[nH]1)C(C)C [Example 40, 3-{3-[5-Fluoro-6-(4-methylperhydro-1,4-diazepin-1-yl)-1H-benzimidazol-2-yl]-1H-pyrazol-4-yl}-1,1-diisopropylurea] | – | – |
| – | < 100 | CC(C)N(C(=O)Nc1c[nH]nc1-c1nc2cc(F)c(N3CCN(C)CC3)cc2[nH]1)C(C)C [Example 39, 3-{3-[5-Fluoro-6-(4-methylpiperazin-1-yl)-1H-benzimidazol-2-yl]-1H-pyrazol-4-yl}-1,1-diisopropylurea trifluoroacetate] | – | – |
| – | < 100 | CC(C)N(C(=O)Nc1c[nH]nc1-c1nc2ccc(N3CCN(C)CC3)cc2[nH]1)C(C)C [Example 34, 1,1-Diisopropyl-3-{3-[6-(4-methylpiperazin-1-yl)-1H-benzimidazol-2-yl]-1H-pyrazol-4-yl}urea] | – | – |
| 100 | – | CN1CCCN(c2cc3[nH]c(-c4n[nH]cc4NC(=O)N4CCCCC4)nc3cc2F)CC1.O=C(O)C(F)(F)F [Example 17, N-{3-[5-fluoro-6-(4-methylperhydro-1,4-diazepin-1-yl)-1H-benzimidazol-2-yl]-1H-pyrazol-4-yl}-piperidine-1-carboxamide Trifluoroacetate] | 4250 | 42 |

Reference: patent US9126969B2, “Pyrazolylbenzimidazole derivatives, compositions containing them and use thereof” (AVENTIS PHARMA S.A., priority 2006, dated 2015)
